In US8585965B2, “Sterilization of polymeric materials” (priority 2006, dated 2013):

Legend:
Assay type in all cases: cell-based
[1] = tested on: Enterococcus faecalis ATCC 29212; assay: Radiosensitization of bacteria coated onto a material surface (sterile 12 mm paper disks), gamma irradiation, cfu by dilution plating; details: for enhancement of the killing efficiency of the irradiation / cfu recovered, 0.3 kGy: 0.3 kGy; for enhancement of the killing efficiency of the irradiation: paper disks; for Post-Treatment CFU Added: 2 hours at room temperature; for cfu recovered, 0.3 kGy / cfu recovered, 0 kGy: paper disk; for cfu recovered, 0 kGy: not irradiated
Description: Enterococcus faecalis ATCC 29212, grown overnight in tryptic soy broth at 37° C. without shaking, were centrifuged and resuspended in 2% glucose at a concentration of about 5×10^7 cfu/ml. […] The cfu contained in each sample were quantified by dilution plating and the values are listed as “post-treatment cfu added.” None of the radiosensitizer treatments alone appeared to have a significant adverse effect on the bacteria.
Following radiosensitizer treatment, 0.05 ml of each mixture (containing approximately 1×10^6 cfu) was spotted onto sterile 12 mm paper disks and the disks air dried for 30 minutes. The disks were then placed in sterile tubes and left untreated or irradiated with 0.3 kGy. The cfu were recovered from the disks by vortexing with glass beads for 1 minute in 0.85% saline with 0.35 g/l lecithin and 2.5 ml/l Tween 80. Quantification of the cfu was then performed by dilution plating onto tryptic soy agar.

[2] = tested on: Enterococcus faecalis ATCC 29212; assay: Radiosensitization of bacteria coated onto Spongostan gelatin sponge (Example 4); details: 50 μg/ml methylene blue
Description: (§1) Enterococcus faecalis ATCC 29212, grown overnight in tryptic soy broth at 37° C. without shaking, were centrifuged and resuspended in phosphate buffered saline (PBS) at a concentration of about 5×10^8 cfu/ml. […] The cfu contained in each sample after this incubation were quantified by dilution plating.
Following radiosensitizer treatment, 0.01 ml of each mixture (containing approximately 5×10^8 cfu) was spotted onto nine 1 cm×1 cm squares of Spongostan® gelatin sponge that were then air dried for 60 minutes. (Spongostan® is a dry artificial sponge of fibrin prepared by clotting with thrombin, a foam or solution of fibrinogen. It is used in conjunction with thrombin as a hemostatic in surgery at sites where bleeding cannot be controlled by more common methods.) Triplicate samples were then placed in sterile tubes and left untreated or irradiated with 0.1 or 0.3 kGy. The cfu were recovered from the sponge by vortexing with glass beads for 1 minute in 0.85% saline with 0.35 g/l lecithin and 2.5 ml/l Tween 80. Quantification of the cfu was then performed by dilution plating onto tryptic soy agar.

[3] = tested on: Enterococcus faecalis ATCC 29212; assay: Radiosensitization of bacteria coated onto Prolene mesh (Example 3)
Description: as §1
(§2) Following radiosensitizer treatment, 0.01 ml of each mixture (containing approximately 5×10^8 cfu) was spotted onto nine 1 cm×1 cm squares of Prolene® mesh that were then air dried for 60 minutes. Triplicate samples were then placed in sterile tubes and left untreated or irradiated with 0.1 or 0.3 kGy. The cfu were recovered from the mesh by vortexing with glass beads for 1 minute in 0.85% saline with 0.35 g/l lecithin and 2.5 ml/l Tween 80. Quantification of the cfu was then performed by dilution plating onto tryptic soy agar.

[4] = tested on: Enterococcus faecalis ATCC 29212; assay: Radiosensitization of bacteria coated onto Vicryl mesh (Example 3); details: for Avg CFU Recovered / Log Red v 0 kGy / Log Red v Control / Log Red v Inoculum: 50 μg/ml, Vicryl
Description: as §1
as §2, with “Vicryl®” for “Prolene®”

[5] = tested on: Enterococcus faecalis ATCC 29212; assay: Radiosensitization of bacteria coated onto Vicryl mesh (Example 2), irradiation 0.1 or 0.2 kGy; set-up: Inoculum: dose or concentration left out as unconfirmed
Description: as §1, with “roughly 2×10^9” for “about 5×10^8”
as §2, with “approximately 2×10^7” for “approximately 5×10^8”, “of Vicryl®” for “of Prolene®”, “or 0.2” for “or 0.3”, “the meshes” for “the mesh”

[6] = 50 μg/ml methylene blue, 2 hours, no irradiation
[7] = 50 μg/ml, 0.3 kGy, Prolene, triplicate samples

Cc1cc2nc3ccc(N(C)C)cc3[s+]c2cc1N.[Cl-] [Toluidine Blue, toluidine blue]
enhancement of the killing efficiency of the irradiation [1]: greatest effect | Percent Survival 0.3 vs. 0 kGy ([1]; Conc. 20 μg/ml): 0.00% | Post-Treatment CFU Added ([1]; Conc. 20 μg/ml): 7.70E+05 CFU | cfu recovered, 0.3 kGy ([1]; Conc. 20 μg/ml): 0 cfu | cfu recovered, 0 kGy ([1]; Conc. 20 μg/ml): 87 cfu | Percent Survival 0.3 vs. 0 kGy ([1]; Conc. 100 μg/ml): 0.00% | Post-Treatment CFU Added ([1]; Conc. 100 μg/ml): 4.65E+05 CFU | cfu recovered, 0.3 kGy ([1]; Conc. 100 μg/ml): 0 cfu | cfu recovered, 0 kGy ([1]; Conc. 100 μg/ml): 72 cfu

O=[N+]([O-])[O-].[Na+] [Sodium Nitrate, sodium nitrate]
enhancement of the killing efficiency of the irradiation [1]: greatest effect | Percent Survival 0.3 vs. 0 kGy ([1]; Conc. 5000 μg/ml): 0.00% | Post-Treatment CFU Added ([1]; Conc. 5000 μg/ml): 8.15E+05 CFU | cfu recovered, 0.3 kGy ([1]; Conc. 5000 μg/ml): 0 cfu | cfu recovered, 0 kGy ([1]; Conc. 5000 μg/ml): 420 cfu

CN(C)c1ccc2nc3ccc(=[N+](C)C)cc-3sc2c1 [Methylene Blue, methylene blue]
cfu contained in sample after incubation ([2]; 2 hours at room temperature, PBS, untreated 4.8×10^8): 4.2×10^8 cfu/ml | effect of incubation on the bacterial number ([2]; 2 hours, no irradiation): did not significantly affect the bacterial number | cfu contained in sample after incubation ([3]; 50 μg/ml methylene blue, 2 hours at room temperature, PBS, suspension used for Prolene and Vicryl meshes, untreated 4.8×10^8): 4.2×10^8 cfu/ml | effect of incubation on the bacterial number [3, 6]: did not significantly affect the bacterial number | Inoculum ([3]; 50 μg/ml methylene blue, spotted onto Prolene mesh): 4.20E+06 CFU | Avg CFU Recovered ([3]; 50 μg/ml, 0.0 kGy, Prolene): 2.38E+03 CFU | Log Red v 0 kGy ([3]; 50 μg/ml, 0.0 kGy, Prolene): 0.0 Log | Log Red v Control ([3]; 50 μg/ml, 0.0 kGy, Prolene): −1.5 Log | Log Red v Inoculum ([3]; 50 μg/ml, 0.0 kGy, Prolene): −3.2 Log | Avg CFU Recovered ([3]; 50 μg/ml, 0.3 kGy, Prolene): 0.00E+00 CFU | Log Red v 0 kGy ([3]; 50 μg/ml, 0.3 kGy, Prolene): −3.4 Log | Log Red v Control ([3]; 50 μg/ml, 0.3 kGy, Prolene): −1.2 Log | Log Red v Inoculum ([3]; 50 μg/ml, 0.3 kGy, Prolene): −6.6 Log | Plated CFU [3, 7]: 0.00E+00 CFU | Total CFU Recovered [3, 7]: 0.00E+00 CFU | number of bacteria recovered, combination with irradiation compared to methylene blue or irradiation alone ([3]; Prolene mesh): significantly reduced the number of bacteria recovered | Inoculum ([4]; 50 μg/ml methylene blue, spotted onto Vicryl mesh): 4.20E+06 CFU | Avg CFU Recovered ([4]; 0.0 kGy): 1.79E+04 CFU | Log Red v 0 kGy ([4]; 0.0 kGy): 0.0 Log | Log Red v Control ([4]; 0.0 kGy): −1.2 Log | Log Red v Inoculum ([4]; 0.0 kGy): −2.4 Log | Avg CFU Recovered ([4]; 0.3 kGy): 9.83E+01 CFU | Log Red v 0 kGy ([4]; 0.3 kGy): −2.3 Log | Log Red v Control ([4]; 0.3 kGy): −0.8 Log | Log Red v Inoculum ([4]; 0.3 kGy): −4.6 Log | number of bacteria recovered, combination with irradiation compared to methylene blue or irradiation alone ([4]; Vicryl mesh): significantly reduced the number of bacteria recovered | Avg CFU Rec ([5]; 0 kGy, Vicryl mesh): 7.40E+05 CFU | Avg Log CFU ([5]; 0 kGy, Vicryl mesh): 5.72 Log CFU | cfu contained in sample after incubation ([5]; 50 μg/ml methylene blue, 2 hours at room temperature, PBS, untreated 1.8×10^9): 1.6×10^9 cfu/ml | effect of incubation on the bacterial number [5, 6]: did not significantly affect the bacterial number | Avg Log CFU ([5]; 0.1 kGy, Vicryl mesh): 3.90 Log CFU | Avg CFU Rec ([5]; 0.2 kGy, Vicryl mesh): 1.83E+03 CFU | Avg Log CFU ([5]; 0.2 kGy, Vicryl mesh): 3.08 Log CFU | effect on bacterial recovery ([5]; methylene blue, Vicryl mesh): small effect on bacterial recovery | recovery from unirradiated sample ([5]; methylene blue-treated, 0 kGy, Vicryl mesh, control 15%): 4.6% | Inoculum ([5]; spotted onto Vicryl mesh): 1.60E+07 CFU | Percent Survival 0.3 vs. 0 kGy ([1]; Conc. 20 μg/ml): 0.13% | Post-Treatment CFU Added ([1]; Conc. 20 μg/ml): 7.80E+05 CFU | cfu recovered, 0.3 kGy ([1]; Conc. 20 μg/ml): 3 cfu | cfu recovered, 0 kGy ([1]; Conc. 20 μg/ml): 2250 cfu

Cc1cc2nc3c(=O)[nH]c(=O)nc-3n(C[C@H](O)[C@H](O)[C@H](O)CO)c2cc1C [Riboflavin, riboflavin]
Percent Survival 0.3 vs. 0 kGy ([1]; Conc. 200 μg/ml): 0.28% | Post-Treatment CFU Added ([1]; Conc. 200 μg/ml): 8.50E+05 CFU | cfu recovered, 0.3 kGy ([1]; Conc. 200 μg/ml): 3 cfu | cfu recovered, 0 kGy ([1]; Conc. 200 μg/ml): 1080 cfu | Percent Survival 0.3 vs. 0 kGy ([1]; Conc. 1000 μg/ml): 0.83% | Post-Treatment CFU Added ([1]; Conc. 1000 μg/ml): 8.00E+05 CFU | cfu recovered, 0.3 kGy ([1]; Conc. 1000 μg/ml): 9 cfu | cfu recovered, 0 kGy ([1]; Conc. 1000 μg/ml): 1080 cfu

O=C1O[C@H]([C@@H](O)CO)C(O)=C1O [Ascorbic Acid, ascorbic acid]
enhancement of the killing efficiency of the irradiation [1]: greatest effect | Percent Survival 0.3 vs. 0 kGy ([1]; Conc. 200 μg/ml): 0.28% | Post-Treatment CFU Added ([1]; Conc. 200 μg/ml): 8.55E+05 CFU | cfu recovered, 0.3 kGy ([1]; Conc. 200 μg/ml): 9 cfu | cfu recovered, 0 kGy ([1]; Conc. 200 μg/ml): 3270 cfu
